This is an account of results in ChEMBL document CHEMBL5370623, “Discovery of Quinazoline-2,4(1H,3H)-dione Derivatives Containing a Piperizinone Moiety as Potent PARP-1/2 Inhibitors─Design, Synthesis, In Vivo Antitumor Activity, and X-ray Crystal Structure Analysis” (J Med Chem, 2023).

The source made the active and inactive calls. No cut-off for these calls is given here. A value given as a limit tells only on which side of the number the result lay.

Assay [1] addresses Poly [ADP-ribose] polymerase 2 (Homo sapiens, UniProt Q9UGN5). Briefly: Inhibition of PARP2 (unknown origin).
The target in assay [2] is Poly [ADP-ribose] polymerase 1 (Homo sapiens, UniProt P09874). Kind of assay: Inhibition of human PARP1 in human MX1 cells assessed as enzyme-DNA trapping activity at 1 uM incubated for 24 hrs by Western blot analysis. Type of assay: cell-based. (In western blotting, separated proteins are transferred to a membrane and probed.)
In assay [3] the target is Protein mono-ADP-ribosyltransferase PARP10 (Homo sapiens) (UniProt Q53GL7). Kind of assay: Inhibition of human N-terminal FLAG-tagged/C-terminal Strep-tagged recombinant PARP10 (805 to 1025 residues) expressed in Sf9 cells at 1 uM relative to control.
Assay [4] deals with Protein mono-ADP-ribosyltransferase PARP11 (Homo sapiens) (UniProt Q9NR21). Kind of assay: Inhibition of human N-terminal FLAG-tagged/C-terminal His-tagged recombinant PARP11 (8 to 338 (end) residues) expressed in Sf9 cells at 1 uM relative to control.
Assay [5] addresses Protein mono-ADP-ribosyltransferase PARP12 (Homo sapiens) (UniProt Q9H0J9). Kind of assay: Inhibition of human N-terminal FLAG/His-tagged recombinant PARP12 (500 to 701(end) residues) expressed in Sf9 cells at 1 uM relative to control.
For assay [6], the target named is Protein mono-ADP-ribosyltransferase PARP14 (Homo sapiens) (UniProt Q460N5). Kind of assay: Inhibition of human N-terminal GST/His-tagged recombinant PARP14 (1470 to 1801(end) residues) expressed in Sf9 cells at 1 uM relative to control.
Assay [7] deals with Protein mono-ADP-ribosyltransferase PARP15 (Homo sapiens) (UniProt Q460N3). Kind of assay: Inhibition of human N-terminal GST-tagged recombinant PARP15 (221 to 444(end) residues) expressed in Escherichia coli at 1 uM relative to control.
Assay [8] addresses Poly [ADP-ribose] polymerase tankyrase-1 (Homo sapiens) (UniProt O95271). Kind of assay: Inhibition of human recombinant N-terminal GST-tagged TNKS1 (1001 to 1327(end) residues) expressed in Sf9 cells at 1 uM relative to control.
The target in assay [9] is Poly [ADP-ribose] polymerase tankyrase-2 (Homo sapiens) (UniProt Q9H2K2). Kind of assay: Inhibition of human recombinant N-terminal GST-tagged TNKS2 (849 to 1166(end) residues) expressed in Sf9 cells at 1 uM relative to control.
Assay [10] addresses Protein mono-ADP-ribosyltransferase TIPARP (Homo sapiens) (UniProt Q7Z3E1). Briefly: Inhibition of PARP7 in human THP-1 cells assessed as induction of TBK1 phosphorylation at 10 uM incubated for 24 hrs by immunoblotting analysis. It counts as cell-based.
Another assay has as its system THP-1. Briefly: Inhibition of PARP1/2 mediated DNA repair pathway in human THP-1 cells assessed as induction of gamma-H2AX phosphorylation at 10 uM incubated for 24 hrs by immunoblotting analysis. It counts as cell-based.
The species named for assay [11] is Felis catus. Kind of assay: Binding affinity to cat PARP1 assessed as dissociative half-life by SPR assay. A general note: Surface plasmon resonance follows binding to a sensor surface in real time, without labels.
Assay [12] is filed under the species Felis catus. Kind of assay: Binding affinity to cat PARP2 assessed as dissociative half-life by SPR assay.
Assay [13] concerns MC-38. Briefly: Antitumor activity against mouse MC38 cells implanted in C57BL/6 mouse assessed as increase in CD8+T cells in tumor at 10 mg/kg, po qd measured after 17 days by flow cytometry analysis. It counts as functional, organism-based. The note with it: time 17.0 day.
For assay [14], the system named is MX1. Briefly: Cytotoxicity against human MX1 cells […] assessed as inhibition of cell growth measured after 72 hrs by MTT assay. Type of assay: functional, cell-based. The note with it: MX1, 72 h.
The subject of assay [15] is MX1. Kind of assay: Potentiation factor, ratio of IC50 for cytotoxicity against human MX1 cells to IC50 for cytotoxicity against human MX1 cells in presence of temozolomide. It counts as functional.
In assay [16] the test system is MC-38. Briefly: Antitumor activity against mouse MC38 cells implanted in C57BL/6 mouse assessed as tumor growth inhibition at 50 mg/kg, po qd measured after 17 days. Type of assay: functional. The note with it: time 17 day.
In assay [17] the test system is MC-38. Kind of assay: Antitumor activity against mouse MC38 cells implanted in C57BL/6 mouse assessed as increase in CD8+T cells in tumor at 50 mg/kg, po qd measured after 17 days by flow cytometry analysis. The note with it: time 17.0 day. It counts as functional, organism-based.

Chain of Poly [ADP-ribose] polymerase tankyrase-2 (Homo sapiens) (Q9H2K2 whole entry): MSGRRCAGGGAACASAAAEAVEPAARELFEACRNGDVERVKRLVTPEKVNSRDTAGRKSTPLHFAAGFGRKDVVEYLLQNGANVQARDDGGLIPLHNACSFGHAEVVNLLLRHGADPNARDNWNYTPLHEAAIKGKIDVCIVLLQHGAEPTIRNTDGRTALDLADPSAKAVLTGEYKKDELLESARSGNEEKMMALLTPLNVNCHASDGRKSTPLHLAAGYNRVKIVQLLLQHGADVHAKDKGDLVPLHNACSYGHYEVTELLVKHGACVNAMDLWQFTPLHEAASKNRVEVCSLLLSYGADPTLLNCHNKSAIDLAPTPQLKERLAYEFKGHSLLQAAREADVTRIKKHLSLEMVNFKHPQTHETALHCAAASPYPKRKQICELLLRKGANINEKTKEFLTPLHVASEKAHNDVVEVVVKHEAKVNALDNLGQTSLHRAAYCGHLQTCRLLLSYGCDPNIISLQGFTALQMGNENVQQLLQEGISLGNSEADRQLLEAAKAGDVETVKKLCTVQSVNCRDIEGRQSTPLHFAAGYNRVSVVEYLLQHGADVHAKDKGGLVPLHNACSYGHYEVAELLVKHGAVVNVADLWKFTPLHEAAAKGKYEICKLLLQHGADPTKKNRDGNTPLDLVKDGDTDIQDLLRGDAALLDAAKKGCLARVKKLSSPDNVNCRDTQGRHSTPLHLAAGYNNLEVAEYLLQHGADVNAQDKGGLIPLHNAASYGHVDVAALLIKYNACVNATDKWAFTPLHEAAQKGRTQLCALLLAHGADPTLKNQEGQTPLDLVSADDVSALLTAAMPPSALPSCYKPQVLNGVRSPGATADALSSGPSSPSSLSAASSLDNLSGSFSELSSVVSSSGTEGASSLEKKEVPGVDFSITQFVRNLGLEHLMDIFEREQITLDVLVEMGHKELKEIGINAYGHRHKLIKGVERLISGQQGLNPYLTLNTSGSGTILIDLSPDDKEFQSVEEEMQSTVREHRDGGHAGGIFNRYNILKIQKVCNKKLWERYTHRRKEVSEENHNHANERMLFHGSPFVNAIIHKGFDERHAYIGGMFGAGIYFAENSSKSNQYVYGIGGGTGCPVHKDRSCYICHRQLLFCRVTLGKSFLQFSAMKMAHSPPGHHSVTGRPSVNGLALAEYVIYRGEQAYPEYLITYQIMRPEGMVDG
Chain of Poly [ADP-ribose] polymerase 1 (P09874 whole entry, the tested form may be a part): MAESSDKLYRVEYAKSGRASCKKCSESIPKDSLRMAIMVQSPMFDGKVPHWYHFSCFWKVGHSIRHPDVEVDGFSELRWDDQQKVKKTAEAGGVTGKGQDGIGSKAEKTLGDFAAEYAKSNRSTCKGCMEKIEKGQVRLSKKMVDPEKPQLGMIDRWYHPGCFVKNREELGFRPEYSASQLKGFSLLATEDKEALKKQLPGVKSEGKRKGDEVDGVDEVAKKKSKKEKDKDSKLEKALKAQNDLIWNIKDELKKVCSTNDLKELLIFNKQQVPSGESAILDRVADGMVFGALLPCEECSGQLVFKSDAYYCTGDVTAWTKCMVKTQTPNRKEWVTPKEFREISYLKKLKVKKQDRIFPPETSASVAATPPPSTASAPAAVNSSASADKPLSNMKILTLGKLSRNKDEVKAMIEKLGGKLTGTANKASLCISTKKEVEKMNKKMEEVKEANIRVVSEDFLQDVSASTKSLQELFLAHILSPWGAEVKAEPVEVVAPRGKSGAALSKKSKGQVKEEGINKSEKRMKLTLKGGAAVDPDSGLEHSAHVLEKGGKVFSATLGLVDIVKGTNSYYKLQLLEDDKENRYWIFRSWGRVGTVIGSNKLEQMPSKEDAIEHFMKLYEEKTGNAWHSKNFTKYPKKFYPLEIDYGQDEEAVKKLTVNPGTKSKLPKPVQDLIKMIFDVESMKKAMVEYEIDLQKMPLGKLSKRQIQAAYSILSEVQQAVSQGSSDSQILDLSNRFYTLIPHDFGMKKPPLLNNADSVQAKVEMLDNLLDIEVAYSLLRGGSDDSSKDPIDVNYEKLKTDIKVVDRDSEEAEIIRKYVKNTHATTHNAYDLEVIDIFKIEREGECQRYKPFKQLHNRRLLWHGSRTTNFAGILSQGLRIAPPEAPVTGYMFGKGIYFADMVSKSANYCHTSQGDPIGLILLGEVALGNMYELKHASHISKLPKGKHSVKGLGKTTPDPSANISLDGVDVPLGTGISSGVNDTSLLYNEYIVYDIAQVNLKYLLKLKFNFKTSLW
Chain of Protein mono-ADP-ribosyltransferase PARP15 (Homo sapiens) (Q460N3 whole entry): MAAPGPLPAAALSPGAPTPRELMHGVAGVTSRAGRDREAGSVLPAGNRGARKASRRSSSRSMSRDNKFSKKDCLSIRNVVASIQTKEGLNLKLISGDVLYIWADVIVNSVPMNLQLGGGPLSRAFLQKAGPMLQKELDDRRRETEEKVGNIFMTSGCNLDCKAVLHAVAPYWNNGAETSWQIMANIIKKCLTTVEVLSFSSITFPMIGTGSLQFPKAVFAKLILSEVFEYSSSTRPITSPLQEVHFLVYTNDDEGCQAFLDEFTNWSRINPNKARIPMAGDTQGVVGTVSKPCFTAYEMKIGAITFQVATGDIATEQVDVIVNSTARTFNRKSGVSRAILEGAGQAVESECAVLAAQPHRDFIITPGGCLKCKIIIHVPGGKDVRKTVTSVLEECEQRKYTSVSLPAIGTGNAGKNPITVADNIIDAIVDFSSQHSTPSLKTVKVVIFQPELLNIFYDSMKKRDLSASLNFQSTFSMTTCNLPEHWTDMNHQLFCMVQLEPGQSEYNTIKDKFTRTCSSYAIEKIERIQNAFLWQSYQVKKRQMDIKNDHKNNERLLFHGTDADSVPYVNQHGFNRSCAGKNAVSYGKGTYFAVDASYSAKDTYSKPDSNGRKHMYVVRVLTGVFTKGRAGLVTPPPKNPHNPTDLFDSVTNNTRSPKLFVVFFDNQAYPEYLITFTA
Chain of Protein mono-ADP-ribosyltransferase PARP10 (Homo sapiens) (Q53GL7 whole entry, the tested form may be a part): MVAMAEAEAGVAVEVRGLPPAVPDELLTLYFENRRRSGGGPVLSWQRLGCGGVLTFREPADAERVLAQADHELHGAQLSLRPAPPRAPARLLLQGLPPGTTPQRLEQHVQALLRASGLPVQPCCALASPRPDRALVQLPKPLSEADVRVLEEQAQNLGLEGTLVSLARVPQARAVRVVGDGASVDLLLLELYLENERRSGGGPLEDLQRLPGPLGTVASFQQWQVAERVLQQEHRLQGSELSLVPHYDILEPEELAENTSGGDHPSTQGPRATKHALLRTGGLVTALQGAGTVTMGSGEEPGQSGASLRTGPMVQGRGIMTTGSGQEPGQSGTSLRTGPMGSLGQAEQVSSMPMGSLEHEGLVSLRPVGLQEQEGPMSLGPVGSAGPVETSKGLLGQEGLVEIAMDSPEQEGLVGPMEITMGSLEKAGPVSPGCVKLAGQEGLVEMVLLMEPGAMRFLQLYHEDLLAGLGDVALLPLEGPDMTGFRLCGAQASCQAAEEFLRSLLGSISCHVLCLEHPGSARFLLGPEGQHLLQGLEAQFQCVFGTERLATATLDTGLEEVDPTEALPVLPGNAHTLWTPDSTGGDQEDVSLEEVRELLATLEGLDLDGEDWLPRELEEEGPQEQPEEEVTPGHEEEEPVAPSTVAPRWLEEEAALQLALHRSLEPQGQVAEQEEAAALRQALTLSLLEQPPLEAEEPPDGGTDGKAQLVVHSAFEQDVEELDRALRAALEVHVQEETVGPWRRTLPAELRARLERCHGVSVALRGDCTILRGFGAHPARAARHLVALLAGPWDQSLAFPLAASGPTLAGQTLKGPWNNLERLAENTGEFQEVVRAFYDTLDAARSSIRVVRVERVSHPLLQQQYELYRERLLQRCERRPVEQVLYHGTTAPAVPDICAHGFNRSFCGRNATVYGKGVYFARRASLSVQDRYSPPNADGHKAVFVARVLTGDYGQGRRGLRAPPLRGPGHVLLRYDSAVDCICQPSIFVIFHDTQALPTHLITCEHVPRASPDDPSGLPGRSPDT
Chain of Protein mono-ADP-ribosyltransferase TIPARP (Homo sapiens) (Q7Z3E1 whole entry): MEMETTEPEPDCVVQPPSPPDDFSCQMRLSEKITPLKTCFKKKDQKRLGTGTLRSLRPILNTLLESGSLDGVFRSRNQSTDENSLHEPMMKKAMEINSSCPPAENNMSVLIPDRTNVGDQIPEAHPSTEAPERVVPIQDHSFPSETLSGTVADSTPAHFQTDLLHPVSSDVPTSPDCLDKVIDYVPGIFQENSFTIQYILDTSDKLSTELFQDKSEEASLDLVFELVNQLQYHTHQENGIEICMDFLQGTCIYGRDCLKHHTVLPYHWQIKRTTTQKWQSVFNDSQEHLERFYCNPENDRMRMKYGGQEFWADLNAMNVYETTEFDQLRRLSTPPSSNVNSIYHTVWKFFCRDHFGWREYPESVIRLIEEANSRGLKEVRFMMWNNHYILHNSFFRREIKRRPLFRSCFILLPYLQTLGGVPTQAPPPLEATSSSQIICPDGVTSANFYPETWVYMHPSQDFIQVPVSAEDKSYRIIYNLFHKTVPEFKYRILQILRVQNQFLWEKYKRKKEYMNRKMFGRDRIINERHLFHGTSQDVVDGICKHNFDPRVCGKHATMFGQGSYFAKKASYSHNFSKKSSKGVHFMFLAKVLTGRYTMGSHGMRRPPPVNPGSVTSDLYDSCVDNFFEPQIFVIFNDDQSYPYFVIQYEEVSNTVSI
Chain of Protein mono-ADP-ribosyltransferase PARP11 (Homo sapiens) (Q9NR21 whole entry): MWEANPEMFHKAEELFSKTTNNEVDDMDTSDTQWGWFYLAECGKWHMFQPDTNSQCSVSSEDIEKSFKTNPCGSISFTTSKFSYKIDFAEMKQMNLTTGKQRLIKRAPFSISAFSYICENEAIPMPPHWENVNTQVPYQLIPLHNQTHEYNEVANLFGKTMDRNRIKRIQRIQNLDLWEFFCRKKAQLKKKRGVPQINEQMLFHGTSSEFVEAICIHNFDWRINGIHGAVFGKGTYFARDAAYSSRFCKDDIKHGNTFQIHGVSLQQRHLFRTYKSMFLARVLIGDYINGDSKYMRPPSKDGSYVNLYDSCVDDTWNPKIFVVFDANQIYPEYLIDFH

Molecule `C[C@]12CCCN1CC1=NNC(=O)c3cc(F)cc4[nH]c2c1c34` [PAMIPARIB] came in with an IC50 in assay [1] of 0.3 nM.

Turning to `CCC(CC)N1CCN(C(=O)c2cc(Cn3c(=O)[nH]c(=O)c4ccccc43)ccc2F)CC1=O`, the PARP1-DNA trapping activity result in assay [2] is “Active”. The inhibition result in [3], in assay [4], in assay [5], in [6], in [8] and in assay [9] was “inactive” throughout. For the same molecule, the inhibition in assay [7] turned out to be 45%. Further, the inhibition entry (in assay [10]; in the assay with THP-1) was “Active” throughout. Besides, the T1/2 in the assay filed under Felis catus [11] came to 2.36 h; in the assay listed under Felis catus [12] it was 2.33 h. Also, the result in the assay on MC-38 [13] was Active.

Consider `O=C(c1cc(Cc2n[nH]c(=O)c3ccccc23)ccc1F)N1CCN(C(=O)C2CC2)CC1` [OLAPARIB], for which, in the assay on MX1 [14], the IC50 was determined as 8.26 nM. For the same molecule, in the assay with MX1 [15], the PF50 is more than 10. The T1/2 in the assay filed under Felis catus [11] was 0.852 h; in the assay listed under Felis catus [12], 0.29 h. The TGI in the assay on MC-38 [16] stood at 57.9%. For the same molecule, the outcome in the assay with MC-38 [17] was inactive.

As a reminder, the IC50 is the concentration that gives 50% inhibition. The term inhibition denotes the share of the control response that was lost under treatment. What is called TGI is the reduction of tumour growth relative to the control group.
